In ChEMBL document CHEMBL3102722, “Diarylacylhydrazones: Clostridium-selective antibacterials with activity against stationary-phase cells” (Bioorg Med Chem Lett, 2014):
In brackets after ≈: the same amount, converted by molar mass. Activity calls are given as the source filed them. No cut-off for these calls is given here.

How the values were obtained:
Escherichia coli = assay: Antibacterial activity against Escherichia coli ATCC 700927 assessed as growth inhibition after 20 to 24 hrs; type: functional
Lacticaseibacillus casei = assay: Antibacterial activity against Lactobacillus casei ATCC 334 assessed as growth inhibition after 20 to 24 hrs; type: functional
[1] = system: Limosilactobacillus reuteri; assay: Antibacterial activity against Lactobacillus reuteri ATCC 23272 assessed as growth inhibition after 20 to 24 hrs; type: functional
Clostridioides difficile [2] = assay: Antibacterial activity against Clostridium difficile CD196 assessed as growth inhibition after 20 to 24 hrs; type: functional
Enterococcus faecalis = assay: Antibacterial activity against Enterococcus faecalis ATCC 47077 assessed as growth inhibition after 20 to 24 hrs; type: functional
Clostridium perfringens = assay: Antibacterial activity against Clostridium perfringens ATCC 13124 assessed as growth inhibition after 20 to 24 hrs; type: functional
Bifidobacterium longum = assay: Antibacterial activity against Bifidobacterium longum ATCC BAA-999 assessed as growth inhibition after 20 to 24 hrs; type: functional
Bacteroides fragilis = assay: Antibacterial activity against Bacteroides fragilis ATCC 25285 assessed as growth inhibition after 20 to 24 hrs; type: functional; settings: NCTC 9343
Staphylococcus aureus = assay: Antibacterial activity against Staphylococcus aureus 8325-4 assessed as growth inhibition after 20 to 24 hrs; type: functional
[3] = system: Bacteroides thetaiotaomicron; assay: Antibacterial activity against Bacteroides thetaiotaomicron ATCC 29148 assessed as growth inhibition after 20 to 24 hrs; type: functional
Streptococcus mutans = assay: Antibacterial activity against Streptococcus mutans ATCC 700610 assessed as growth inhibition after 20 to 24 hrs; type: functional
Clostridioides difficile [4] = assay: Antibacterial activity against stationary phase of Clostridium difficile CD196 assessed as cell killing at 1 to 20 X MIC after 3 to 6 hrs; type: functional
[5] = Cytotoxicity against human HepG2 cells assessed as concentration required to decrease cell viability incubated for 24 hrs followed by compound washout measured after 18 hrs by resazurin dye-based assay; settings: read-out: Activity
FaDu = assay: Cytotoxicity against human FADU cells assessed as concentration required to decrease cell viability incubated for 24 hrs followed by compound washout measured after 18 hrs by resazurin dye-based assay

Compound | MIC (Escherichia coli) | MIC (Lacticaseibacillus casei) | MIC [1] | MIC (Clostridioides difficile [2]) | MIC (Enterococcus faecalis) | MIC (Clostridium perfringens) | MIC (Bifidobacterium longum) | MIC (Bacteroides fragilis) | MIC (Staphylococcus aureus) | MIC [3] | MIC (Streptococcus mutans) | Activity (Clostridioides difficile [4]) | MCC at 24 h [5] | Activity (FaDu)
COc1ccc2ccccc2c1/C=N/N(C)C(=O)c1ccc(C)cc1 | > 50 µg/mL | > 50 µg/mL | > 50 µg/mL | > 50 µg/mL | > 50 µg/mL | > 50 µg/mL | > 50 µg/mL | > 50 µg/mL | > 50 µg/mL | > 50 µg/mL | > 50 µg/mL | – | – | –
O=C(NNC(=O)c1ccc(-c2ccccc2)cc1)c1ccc(-c2ccccc2)cc1 | – | – | – | > 50 µg/mL | – | – | – | – | – | – | – | – | – | –
Cc1ncc([N+](=O)[O-])n1CCO [METRONIDAZOLE] | > 50 µg/mL | > 50 µg/mL | > 50 µg/mL | 1.56 µg/mL (≈ 9.11 µM) | > 50 µg/mL | 3.13 µg/mL (≈ 18.3 µM) | ≤ 0.78 µg/mL | ≤ 0.78 µg/mL | > 50 µg/mL | ≤ 0.78 µg/mL | > 50 µg/mL | inactive | > 200 µg/mL | > 200 µg/mL
O=C(N/N=C/c1c(O)ccc2ccccc12)c1cccc([N+](=O)[O-])c1 | – | – | – | > 50 µg/mL | – | – | – | – | – | – | – | – | – | –
Clc1ccc(COC(Cn2ccnc2)c2ccc(Cl)cc2Cl)c(Cl)c1 (stereo not given) [MICONAZOLE] | – | – | – | – | – | – | – | – | – | – | – | – | 50 µg/mL | 50 µg/mL
O=C(N/N=C/c1c(O)ccc2ccccc12)c1cc([N+](=O)[O-])cc([N+](=O)[O-])c1 | – | – | – | > 50 µg/mL | – | – | – | – | – | – | – | – | – | –
O=C(N/N=C/c1c(OCc2cccc(Br)c2)ccc2ccccc12)c1ccccc1 | – | – | – | > 50 µg/mL | – | – | – | – | – | – | – | – | – | –
COc1cccc(/C=N/NC(=O)c2cc(C)nc3ccc(Br)cc23)c1 | > 50 µg/mL | > 50 µg/mL | > 50 µg/mL | > 50 µg/mL | > 50 µg/mL | > 50 µg/mL | > 50 µg/mL | > 50 µg/mL | > 50 µg/mL | > 50 µg/mL | > 50 µg/mL | – | – | –
O=C(CO)N/N=C/c1cccc2ccccc12 | – | – | – | > 50 µg/mL | – | – | – | – | – | – | – | – | – | –
O/N=C/c1c(O)ccc2ccccc12 | – | – | – | > 50 µg/mL | – | – | – | – | – | – | – | – | – | –
COc1cccc(/C=N/NC(=O)c2ccc(C)cc2)c1O | > 50 µg/mL | > 50 µg/mL | > 50 µg/mL | 12.5 µg/mL (≈ 44 µM) | > 50 µg/mL | 6.25 µg/mL (≈ 22 µM) | > 50 µg/mL | > 50 µg/mL | > 50 µg/mL | > 50 µg/mL | 1.56 µg/mL (≈ 5.49 µM) | – | – | –
O=C(N/N=C/c1c(O)ccc2ccccc12)c1ccc(Cl)cc1 | > 50 µg/mL | > 50 µg/mL | > 50 µg/mL | 6.25 µg/mL (≈ 19.2 µM) | > 50 µg/mL | ≤ 0.78 µg/mL | > 50 µg/mL | 12.5 µg/mL (≈ 38.5 µM) | > 50 µg/mL | 12.5 µg/mL (≈ 38.5 µM) | > 50 µg/mL | – | – | –
O=C(NCc1ccccc1)c1ccc(-c2ccccc2)cc1 | – | – | – | > 50 µg/mL | – | – | – | – | – | – | – | – | – | –
NC(=O)N/N=C/c1c(O)ccc2ccccc12 | – | – | – | > 50 µg/mL | – | – | – | – | – | – | – | – | – | –
O=C(N/N=C/c1c(O)ccc2ccccc12)c1cc2ccccc2cc1O | – | – | – | 12.5 µg/mL (≈ 35.1 µM) | – | – | – | – | – | – | – | – | – | –
Cc1ccc(C(=O)N/N=C/c2ccc(O)c3ccccc23)cc1 | > 50 µg/mL | > 50 µg/mL | > 50 µg/mL | > 50 µg/mL | > 50 µg/mL | > 50 µg/mL | > 50 µg/mL | > 50 µg/mL | > 50 µg/mL | > 50 µg/mL | > 50 µg/mL | – | – | –
O=C(N/N=C/c1c(O)ccc2ccccc12)c1ccc([N+](=O)[O-])cc1 | – | – | – | > 50 µg/mL | – | – | – | – | – | – | – | – | – | –

Compound | MIC (Escherichia coli) | MIC (Lacticaseibacillus casei) | MIC [1] | MIC (Clostridioides difficile [2]) | MIC (Enterococcus faecalis) | MIC (Clostridium perfringens) | MIC (Bifidobacterium longum) | MIC (Bacteroides fragilis) | MIC (Staphylococcus aureus) | MIC [3] | MIC (Streptococcus mutans) | Activity (Clostridioides difficile [4]) | MCC at 24 h [5] | Activity (FaDu)
COc1ccc2ccccc2c1/C=N/NC(=O)c1ccc(C)cc1 | > 50 µg/mL | > 50 µg/mL | > 50 µg/mL | > 50 µg/mL | > 50 µg/mL | > 50 µg/mL | > 50 µg/mL | > 50 µg/mL | > 50 µg/mL | > 50 µg/mL | > 50 µg/mL | – | – | –
Cc1ccc(C(=O)N/N=C/c2cccc3ccccc23)cc1 | > 50 µg/mL | > 50 µg/mL | > 50 µg/mL | > 50 µg/mL | > 50 µg/mL | > 50 µg/mL | > 50 µg/mL | > 50 µg/mL | > 50 µg/mL | > 50 µg/mL | > 50 µg/mL | – | – | –
COc1cccc(/C=N/NC(=O)c2cc(C)nc3ccc(Br)cc23)c1O | > 50 µg/mL | > 50 µg/mL | > 50 µg/mL | 6.25 µg/mL (≈ 15.1 µM) | > 50 µg/mL | 6.25 µg/mL (≈ 15.1 µM) | > 50 µg/mL | > 50 µg/mL | > 50 µg/mL | > 50 µg/mL | > 50 µg/mL | – | – | –
N#CC(C#N)=NNc1cccc(Cl)c1 [CARBONYL CYANIDE M-CHLOROPHENYLHYDRAZONE] | > 50 µg/mL | > 50 µg/mL | > 50 µg/mL | 1.56 µg/mL (≈ 7.62 µM) | > 50 µg/mL | > 50 µg/mL | 3.25 µg/mL (≈ 15.9 µM) | > 50 µg/mL | > 50 µg/mL | > 50 µg/mL | > 50 µg/mL | Active | 50 µg/mL | 50 µg/mL
CC(=O)N/N=C/c1ccccc1 | – | – | – | > 50 µg/mL | – | – | – | – | – | – | – | – | – | –
Cc1cc(C(=O)N/N=C/c2c(O)ccc3ccccc23)c2cc(Br)ccc2n1 | > 50 µg/mL | > 50 µg/mL | > 50 µg/mL | > 50 µg/mL | > 50 µg/mL | 25 µg/mL (≈ 57.6 µM) | > 50 µg/mL | > 50 µg/mL | > 50 µg/mL | > 50 µg/mL | > 50 µg/mL | – | – | –
COc1cccc(/C=N/NC(=O)c2cc(C)n[nH]2)c1O | > 50 µg/mL | > 50 µg/mL | > 50 µg/mL | > 50 µg/mL | > 50 µg/mL | > 50 µg/mL | > 50 µg/mL | > 50 µg/mL | > 50 µg/mL | > 50 µg/mL | > 50 µg/mL | – | – | –
Cc1cc(C(=O)N/N=C/c2ccc([N+](=O)[O-])o2)[nH]n1 | 12.5 µg/mL (≈ 47.5 µM) | 6.25 µg/mL (≈ 23.7 µM) | 12.5 µg/mL (≈ 47.5 µM) | 0.78 µg/mL (≈ 2.96 µM) | 12.5 µg/mL (≈ 47.5 µM) | ≤ 12.5 µg/mL | ≤ 0.78 µg/mL | ≤ 3.13 µg/mL | 1.56 µg/mL (≈ 5.93 µM) | ≤ 3.13 µg/mL | 1.56 µg/mL (≈ 5.93 µM) | – | – | –
Cc1ccc(C(=O)N(C)/N=C/c2c(O)ccc3ccccc23)cc1 | > 50 µg/mL | > 50 µg/mL | > 50 µg/mL | > 50 µg/mL | > 50 µg/mL | > 50 µg/mL | > 50 µg/mL | > 50 µg/mL | > 50 µg/mL | > 50 µg/mL | > 50 µg/mL | – | – | –
O=[N+]([O-])c1ccc(O)c([N+](=O)[O-])c1 [2,4-DINITROPHENOL] | > 50 µg/mL | > 50 µg/mL | > 50 µg/mL | 50 µg/mL (≈ 272 µM) | > 50 µg/mL | > 50 µg/mL | 25 µg/mL (≈ 136 µM) | 12.5 µg/mL (≈ 67.9 µM) | 25 µg/mL (≈ 136 µM) | 25 µg/mL (≈ 136 µM) | > 50 µg/mL | – | – | –
Cc1cc(C(=O)N/N=C/c2cccc3ccccc23)[nH]n1 | > 50 µg/mL | > 50 µg/mL | > 50 µg/mL | > 50 µg/mL | > 50 µg/mL | > 50 µg/mL | > 50 µg/mL | > 50 µg/mL | > 50 µg/mL | > 50 µg/mL | > 50 µg/mL | – | – | –
O=C(N/N=C/c1c(O)ccc2ccccc12)c1cccc(Br)c1 | – | – | – | 6.25 µg/mL (≈ 16.9 µM) | – | – | – | – | – | – | – | – | – | –
O=C(N/N=C/c1c(O)ccc2ccccc12)c1ccccc1 | – | – | – | 6.25 µg/mL (≈ 21.5 µM) | – | – | – | – | – | – | – | – | – | –
Oc1c(Cl)c(Cl)c(Cl)c(Cl)c1Cl [PENTACHLOROPHENOL] | > 50 µg/mL | 50 µg/mL (≈ 188 µM) | 50 µg/mL (≈ 188 µM) | 50 µg/mL (≈ 188 µM) | > 50 µg/mL | 6.25 µg/mL (≈ 23.5 µM) | 12.5 µg/mL (≈ 46.9 µM) | 6.25 µg/mL (≈ 23.5 µM) | < 0.78 µg/mL | 6.25 µg/mL (≈ 23.5 µM) | 25 µg/mL (≈ 93.9 µM) | – | – | –
Cc1cccc(/C=N/NC(=O)c2ccc(-c3ccccc3)cc2)c1 | – | – | – | > 50 µg/mL | – | – | – | – | – | – | – | – | – | –
Oc1ccc2ccccc2c1/C=N/Nc1ccccc1 | – | – | – | > 50 µg/mL | – | – | – | – | – | – | – | – | – | –
